Experimental data: patent US7781641B2, “Absorbent article” (Kao Corporation, priority 2003, dated 2010)

Test: Method of measuring viscosity (tuning fork type vibration mode viscometer)
Format: physicochemical
Protocol: Measurement is conducted using a tuning fork type vibration mode viscometer (VIBRO NISCOMETERCJV5000 (manufactured by A&D Company Limited) is typically used in this embodiment). An oily skin care agent heated previously at about 100° C. is gradually cooled to room temperature, and viscosity at the predetermined temperature is measured.
“Viscosity of a diamide derivative” in the present invention was measured by the same measuring method as used for the viscosity of an oily skin care agent in the above mentioned first embodiment.

CCCCCCCCCCCCCCCCOCC(O)CN(CCO)C(=O)CCCCCCCCCCCCCCC (stereo not shown) [Monoamide of the formula (III)]
viscosity at 36° C.: 1000 mPa·s
